Patent publication US12595230B2, “Substituted 6,7-dihydro-5H-benzo[7]annulene compounds and their derivatives, processes for their preparation and therapeutic uses thereof” (Sanofi, priority 2020, dated 2026)

Biological target: T1, ERα (Homo sapiens, UniProt P03372)
T1 construct: host or cells: MCF7
T1 sequence (P03372 1-595): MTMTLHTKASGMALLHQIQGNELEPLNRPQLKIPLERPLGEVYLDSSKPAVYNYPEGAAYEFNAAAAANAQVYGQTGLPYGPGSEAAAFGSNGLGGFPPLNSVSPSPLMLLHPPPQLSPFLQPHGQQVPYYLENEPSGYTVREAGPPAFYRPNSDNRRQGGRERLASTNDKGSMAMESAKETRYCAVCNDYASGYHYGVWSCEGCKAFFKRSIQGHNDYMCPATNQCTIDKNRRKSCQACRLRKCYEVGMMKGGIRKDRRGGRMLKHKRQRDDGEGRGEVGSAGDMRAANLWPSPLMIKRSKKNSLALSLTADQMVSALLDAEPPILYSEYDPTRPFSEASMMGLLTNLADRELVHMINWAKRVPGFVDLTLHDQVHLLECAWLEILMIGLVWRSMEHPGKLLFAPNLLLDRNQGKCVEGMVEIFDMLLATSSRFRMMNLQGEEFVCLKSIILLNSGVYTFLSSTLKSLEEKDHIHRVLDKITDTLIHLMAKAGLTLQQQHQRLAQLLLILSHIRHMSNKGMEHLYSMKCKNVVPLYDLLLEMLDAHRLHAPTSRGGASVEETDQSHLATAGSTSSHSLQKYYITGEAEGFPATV
Test: Estrogen receptor degradation activity: breast cancer cell ERα in cell western assay (MCF7 cells)
Type: cell-based
Conditions: for % Degradation At 0.3 μM: 4 hours, relative to fulvestrant 0.1 μM positive control; for DC50: 4 hours post compound addition, concentration which degrades 50% of the estrogen receptor, read-out: Degradation IC50
Summary of the method: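 Compounds were applied to MCF7 cells in stripped-serum, phenol red-free medium for 4 h at final 0.3–0.0000018 μM, with fulvestrant (0.1 μM) as control. Value: IC50 (nM) for 50% ERα degradation.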

| Structure (SMILES) | % Degradation At 0.3 μM [%] | DC50 [nM] |
| --- | --- | --- |
| O=C(O)c1ccc2c(c1)CCCC(c1ccccc1CC(F)(F)F)=C2c1ccc(CC2CN(CCCF)C2)cc1 [Example 301, 9-(4-((1-(3-fluoropropyl)azetidin-3-yl)methyl)phenyl)-8-(2-(2,2,2-trifluoroethyl)phenyl)-6,7-dihydro-5H-benzo[7]annulene-3-carboxylic acid] | 89 | 0.5 |
| FCCCN1CC(Cc2ccc(C3=C(c4ccccc4Cl)CCCc4ccccc43)cc2)C1 [Example 304, 3-(4-(8-(2-chlorophenyl)-6,7-dihydro-5H-benzo[7]annulen-9-yl)benzyl)-1-(3-fluoropropyl)azetidine] | 89 | 17.4 |
| Oc1c(F)cc2c(c1F)CCCC(c1ccc(Cl)cc1Cl)=C2c1ccc(CC2CN(CCCF)C2)cc1 [Example 305, 8-(2,4-dichlorophenyl)-2,4-difluoro-9-(4-((1-(3-fluoropropyl)azetidin-3-yl)methyl)phenyl)-6,7-dihydro-5H-benzo[7]annulen-3-ol] | 85 | 1.2 |
| COc1ncc(C2=C(c3ccc(CC4CN(CCCF)C4)cc3)c3ccc(C(=O)O)cc3CCC2)cc1C(F)(F)F [Example 306, 9-(4-((1-(3-fluoropropyl)azetidin-3-yl)methyl)phenyl)-8-(6-methoxy-5-(trifluoromethyl)pyridin-3-yl)-6,7-dihydro-5H-benzo[7]annulene-3-carboxylic acid] | 82 | 25.8 |
| O=C(O)c1ccc2c(c1)SCC(c1ccc(Cl)cc1Cl)=C2c1ccc(CC2CN(CCCF)C2)cc1 [Example 308, 3-(2,4-dichlorophenyl)-4-(4-((1-(3-fluoropropyl)azetidin-3-yl)methyl)phenyl)-2H-thiochromene-7-carboxylic acid] | 94 | 1.4 |
| O=C(O)c1ccc2c(c1)CCCC(Cc1ccccc1)=C2c1ccc(CC2CN(CCCF)C2)cc1 [Example 311, 8-benzyl-9-(4-((1-(3-fluoropropyl)azetidin-3-yl)methyl)phenyl)-6,7-dihydro-5H-benzo[7]annulene-3-carboxylic acid] | 73 | 9 |
| Cc1cccc(C2=C(c3ccc(CC4CN(CCCF)C4)cc3)c3ccc(C(=O)O)cc3CCC2)c1C(F)(F)F.Cl [Example 313, 9-(4-((1-(3-fluoropropyl)azetidin-3-yl)methyl)phenyl)-8-(3-methyl-2-(trifluoromethyl)phenyl)-6,7-dihydro-5H-benzo[7]annulene-3-carboxylic acid hydrochloride] | 90 | 0.3 |
| O=C(O)c1ccc2c(c1)SCC(c1ccc(F)cc1F)=C2c1ccc(CC2CN(CCCF)C2)cc1 [Example 314, 3-(2,4-difluorophenyl)-4-(4-((1-(3-fluoropropyl)azetidin-3-yl)methyl)phenyl)-2H-thiochromene-7-carboxylic acid] | 87 | 3 |
| O=C(O)c1ccc2c(c1)CCCC(C1CC3CCC(C3)C1)=C2c1ccc(CC2CN(CCCF)C2)cc1 (centres unmarked) [Example 316, 8-(bicyclo[3.2.1]octan-3-yl)-9-(4-((1-(3-fluoropropyl)azetidin-3-yl)methyl)phenyl)-6,7-dihydro-5H-benzo[7]annulene-3-carboxylic acid] | 81 | 1.2 |
| Cl.O=C(O)c1ccc2c(c1)CCCC(c1ccc(C(F)(F)F)cc1)=C2c1ccc(CC2CN(CCCF)C2)cc1 [Example 318, 9-(4-((1-(3-fluoropropyl)azetidin-3-yl)methyl)phenyl)-8-(4-(trifluoromethyl)phenyl)-6,7-dihydro-5H-benzo[7]annulene-3-carboxylic acid hydrochloride] | 94 | 0.6 |
| O=C(O)c1ccc2c(c1)CCCC(c1cccc(CCO)c1)=C2c1ccc(CC2CN(CCCF)C2)cc1 [Example 319, 9-(4-((1-(3-fluoropropyl)azetidin-3-yl)methyl)phenyl)-8-(3-(2-hydroxyethyl)phenyl)-6,7-dihydro-5H-benzo[7]annulene-3-carboxylic acid] | 73 | 48 |
| O=C(O)c1ccc2c(c1)CCCC(c1cccc(CO)c1)=C2c1ccc(CC2CN(CCCF)C2)cc1 [Example 320, 9-(4-((1-(3-fluoropropyl)azetidin-3-yl)methyl)phenyl)-8-(3-(hydroxymethyl)phenyl)-6,7-dihydro-5H-benzo[7]annulene-3-carboxylic acid] | 80 | 110 |
| O=C(O)c1ccc2c(c1)CCCC([C@@H]1C[C@H]1C1CCC(F)(F)CC1)=C2c1ccc(CC2CN(CCCF)C2)cc1 [Example 331, 8-((1R,2S)-2-(4,4-difluorocyclohexyl)cyclopropyl)-9-(4-((1-(3-fluoropropyl)azetidin-3-yl)methyl)phenyl)-6,7-dihydro-5H-benzo[7]annulene-3-carboxylic acid] | 77 | 10.7 |
| Cl.O=C(O)c1ccc2c(c1)CCCC(c1cc(F)ccc1C(F)(F)F)=C2c1ccc(CC2CN(CCCF)C2)cc1 [Example 332, 8-(5-fluoro-2-(trifluoromethyl)phenyl)-9-(4-((1-(3-fluoropropyl)azetidin-3-yl)methyl)phenyl)-6,7-dihydro-5H-benzo[7]annulene-3-carboxylic acid hydrochloride] | 85 | 0.4 |
| COc1c(Cl)cccc1C1=C(c2ccc(CC3CN(CCCF)C3)cc2)c2ccc(C(=O)O)cc2CCC1 [Example 334, 8-(3-chloro-2-methoxyphenyl)-9-(4-((1-(3-fluoropropyl)azetidin-3-yl)methyl)phenyl)-6,7-dihydro-5H-benzo[7]annulene-3-carboxylic acid] | 91 | 0.4 |
| COc1c(F)cccc1C1=C(c2ccc(CC3CN(CCCF)C3)cc2)c2ccc(C(=O)O)cc2CCC1 [Example 335, 8-(3-fluoro-2-methoxyphenyl)-9-(4-((1-(3-fluoropropyl)azetidin-3-yl)methyl)phenyl)-6,7-dihydro-5H-benzo[7]annulene-3-carboxylic acid] | 93 | 0.6 |
